Laboratory results: ChEMBL document CHEMBL1146464, “Two new analogues of the cytotoxic substance BE-52211 from Streptomyces sp” (2004)

Test: Inhibition of first mitotic cell division in Asterina pectinifera fertilized eggs assessed as minimum effective concentration
Format: functional
Conditions: Patiria pectinifera, Egg; read-out: MEC

Compound `C/C=C\c1cc(C)ccc1/C(C)=C\C(C)=C\CCC[C@H](O)CNC(C)=O` has a minimal effective concentration of 2.5 µg/mL.

For `C=CCc1cc(C)ccc1/C(C)=C\C(C)=C\CCC[C@H](O)CNC(C)=O`, the minimal effective concentration was 2.5 µg/mL.
